Patent US20190315814A1, “LANTIBIOTIC VARIANTS AND USES THEREOF” (priority 2016, published 2019)
Values after ≈ are worked out from the molar mass of the structure shown. Read-outs that look alike come from different tables or passages of the source.

Assays:
[1] = simulated gi fluid
[2] = test system: VRE Enterococcus faecalis; conditions: VRE
[3] = test system: Clostridium scindens (ATCC 35704)
[4] = test system: Lactobacillus acidophilus (CCUG 4356)
[5] = test system: Peptostreptococcus anaerobius (ATCC 27337)
[6] = test system: Eggerthella lenta (ATCC 27337)
[7] = FaSSIF + 1% pancreatin + 3 μg/ml trypsin + 3 μg/ml chymotrypsin half-life

| SMILES | half-life [1, 7] [h] | half-life ([1]; FaSSIF only half-life) [h] | MIC VRE ATCC 51575 [2] [µg/mL] | MIC VRE CCUG 47775 [2] [µg/mL] | MIC VRE ATCC 700221 (VRE Enterococcus faecium) [µg/mL] | MIC C. scindens [3] [µg/mL] | MIC L. acidophilus [4] [µg/mL] | MIC P. anaerobius [5] [µg/mL] | MIC E. lenta [6] [µg/mL] | MIC to H. Pylori without EDTA (Heliobacter pylori) [µg/mL] | MIC to H. Pylori with 0.05M EDTA (Heliobacter pylori) [µg/mL] | MIC to H. Pylori without EDTA (Heliobacter pylori; without EDTA) [µg/mL] |
| --- | --- | --- | --- | --- | --- | --- | --- | --- | --- | --- | --- | --- |
| C=C1NC(=O)[C@H](Cc2c[nH]c3ccccc23)NC(=O)[C@H](NC(=O)[C@H](CCCCN)NC(=O)[C@H](C)N)CSC[C@@H](C(=O)N[C@H]2C(=O)N3CCC[C@H]3C(=O)NCC(=O)N[C@H](C(=O)N[C@@H](C)C(=O)N[C@@H](C)C(=O)NC(=CC)C(=O)NCC(=O)N[C@@H]3CSC[C@@H]4NC(=O)[C@H](Cc5ccc(O)cc5)NC(=O)[C@@H](CS/C=C\NC4=O)NC(=O)[C@H](CC(N)=O)NC(=O)[C@H](Cc4ccccc4)NC3=O)CS[C@H]2C)NC(=O)[C@H](CC(C)C)NC1=O [F1A R13A] | 2.17 | > 12 | 32 (≈ 15.2 µM) | 32 (≈ 15.2 µM) | 16 (≈ 7.61 µM) | 16 (≈ 7.61 µM) | 8 (≈ 3.8 µM) | 2 (≈ 0.951 µM) | 4 (≈ 1.9 µM) | >64 | 64 | – |
| C=C1NC(=O)[C@H](Cc2c[nH]c3ccccc23)NC(=O)[C@H](NC(=O)[C@H](CCCCN)NC(=O)[C@H](C)N)CSC[C@@H](C(=O)N[C@H]2C(=O)N3CCC[C@H]3C(=O)NCC(=O)N[C@H](C(=O)N[C@@H](C)C(=O)NCC(=O)NC(=CC)C(=O)NCC(=O)N[C@@H]3CSC[C@@H]4NC(=O)[C@H](Cc5ccc(O)cc5)NC(=O)[C@@H](CS/C=C\NC4=O)NC(=O)[C@H](CC(N)=O)NC(=O)[C@H](Cc4ccccc4)NC3=O)CS[C@H]2C)NC(=O)[C@H](CC(C)C)NC1=O [F1A R13G] | 2.07 | 4.98 | >64 | >64 | 32 (≈ 15.3 µM) | 32 (≈ 15.3 µM) | 16 (≈ 7.66 µM) | 4 (≈ 1.91 µM) | 16 (≈ 7.66 µM) | >64 | >64 | – |
| C=C1NC(=O)[C@H](Cc2c[nH]c3ccccc23)NC(=O)[C@H](NC(=O)[C@H](CCCCN)NC(=O)CN)CSC[C@@H](C(=O)N[C@H]2C(=O)N3CCC[C@H]3C(=O)NCC(=O)N[C@H](C(=O)N[C@@H](C)C(=O)N[C@@H](CC(N)=O)C(=O)NC(=CC)C(=O)NCC(=O)N[C@@H]3CSC[C@@H]4NC(=O)[C@H](Cc5ccc(O)cc5)NC(=O)[C@@H](CS/C=C\NC4=O)NC(=O)[C@H](CC(N)=O)NC(=O)[C@H](Cc4ccccc4)NC3=O)CS[C@H]2C)NC(=O)[C@H](CC(C)C)NC1=O [F1G R13N] | 3.75 | > 12 | >64 | >64 | 32 (≈ 15 µM) | 16 (≈ 7.5 µM) | 8 (≈ 3.75 µM) | 4 (≈ 1.88 µM) | 16 (≈ 7.5 µM) | >64 | >64 | – |
| C=C1NC(=O)[C@H](Cc2c[nH]c3ccccc23)NC(=O)[C@H](NC(=O)[C@H](CCCCN)NC(=O)[C@@H](N)[C@@H](C)CC)CSC[C@@H](C(=O)N[C@H]2C(=O)N3CCC[C@H]3C(=O)NCC(=O)N[C@H](C(=O)N[C@@H](C)C(=O)N[C@@H](CC(N)=O)C(=O)NC(=CC)C(=O)N[C@@H](C)C(=O)N[C@@H]3CSC[C@@H]4NC(=O)[C@H](Cc5ccc(O)cc5)NC(=O)[C@@H](CS/C=C\NC4=O)NC(=O)[C@H](CC(N)=O)NC(=O)[C@H](Cc4ccccc4)NC3=O)CS[C@H]2C)NC(=O)[C@H](CC(C)C)NC1=O [F1I R13N G15A] | > 12 | > 12 | 32 (≈ 14.5 µM) | >64 | 32 (≈ 14.5 µM) | 16 (≈ 7.26 µM) | 8 (≈ 3.63 µM) | 4 (≈ 1.82 µM) | 8 (≈ 3.63 µM) | >64 | 64 | – |
| C=C1NC(=O)[C@H](CCSC)NC(=O)[C@H](NC(=O)[C@H](CCCCN)NC(=O)[C@@H](N)[C@@H](C)CC)CSC[C@@H](C(=O)N[C@H]2C(=O)N3CCC[C@H]3C(=O)NCC(=O)N[C@H](C(=O)N[C@@H](C)C(=O)N[C@@H](C)C(=O)NC(=CC)C(=O)NCC(=O)N[C@@H]3CSC[C@@H]4NC(=O)[C@H](Cc5ccc(O)cc5)NC(=O)[C@@H](CS/C=C\NC4=O)NC(=O)[C@H](CC(N)=O)NC(=O)[C@H](Cc4ccccc4)NC3=O)CS[C@H]2C)NC(=O)[C@H](CC(C)C)NC1=O [F1I W4M R13A] | 5.82 | > 12 | >64 | >64 | >64 | 32 (≈ 15.3 µM) | 32 (≈ 15.3 µM) | 8 (≈ 3.83 µM) | 16 (≈ 7.65 µM) | 64 (≈ 30.6 µM) | 64 | – |
| C=C1NC(=O)[C@H](Cc2c[nH]c3ccccc23)NC(=O)[C@H](NC(=O)[C@H](CCCCN)NC(=O)[C@@H](N)CO)CSC[C@@H](C(=O)N[C@H]2C(=O)N3CCC[C@H]3C(=O)NCC(=O)N[C@H](C(=O)N[C@@H](C)C(=O)N[C@@H](CC(N)=O)C(=O)NC(=CC)C(=O)NCC(=O)N[C@@H]3CSC[C@@H]4NC(=O)[C@H](Cc5ccc(O)cc5)NC(=O)[C@@H](CS/C=C\NC4=O)NC(=O)[C@H](CC(N)=O)NC(=O)[C@H](Cc4ccccc4)NC3=O)CS[C@H]2C)NC(=O)[C@H](CC(C)C)NC1=O [F1S R13N] | > 12 | > 12 | >64 | >64 | 64 (≈ 29.6 µM) | 32 (≈ 14.8 µM) | 16 (≈ 7.4 µM) | 8 (≈ 3.7 µM) | 16 (≈ 7.4 µM) | >64 | >64 | – |
| C=C1NC(=O)[C@H](Cc2c[nH]c3ccccc23)NC(=O)[C@H](NC(=O)[C@H](CCCCN)NC(=O)[C@@H](N)[C@@H](C)O)CSC[C@@H](C(=O)N[C@H]2C(=O)N3CCC[C@H]3C(=O)NCC(=O)N[C@H](C(=O)N[C@@H](C)C(=O)NCC(=O)NC(=CC)C(=O)NCC(=O)N[C@@H]3CSC[C@@H]4NC(=O)[C@H](Cc5ccc(O)cc5)NC(=O)[C@@H](CS/C=C\NC4=O)NC(=O)[C@H](CC(N)=O)NC(=O)[C@H](Cc4ccccc4)NC3=O)CS[C@H]2C)NC(=O)[C@H](CC(C)C)NC1=O [F1T R13G] | 1.9 | > 12 | 64 (≈ 30.2 µM) | 64 (≈ 30.2 µM) | 32 (≈ 15.1 µM) | 64 (≈ 30.2 µM) | 8 (≈ 3.77 µM) | 8 (≈ 3.77 µM) | 8 (≈ 3.77 µM) | >64 | >64 | – |
| CN(C)[C@@H]1C(O)=C(C(N)=O)C(=O)[C@@]2(O)C(O)=C3C(=O)c4c(O)cccc4[C@@](C)(O)[C@H]3C[C@@H]12 [Tetracycline, reference compound] | – | – | – | – | – | – | – | – | – | – | 0.25 | 0.5 (≈ 1.13 µM) |
